Test results reported in patent US20260356823A1, “SODIUM CHANNEL REGULATOR AND USE THEREOF” (SHANGHAI HUILUN PHARMACEUTICAL CO., LTD., priority 2022, published 2026).

Target: T1, human Nav1.8 (Homo sapiens, UniProt Q9Y5Y9)
T1 construct: expressed in transfected cells
Experiment: In vitro inhibition of Nav1.8, manual patch clamp on HEK293 cells stably expressing human Nav1.8
Type: cell-based
Details: 100 nM, human Nav1.8, manual patch clamp
Experimental: Bioactivity Test 1: In Vitro Inhibition of Nav1.8 by the Compound
By using a manual patch clamp on HEK293 cells stably expressing human Nav1.8, currents on Nav1.8 before and after administration of the compound were compared after the currents on Nav1.8 were stable, to obtain the effect of the compound on the Nav1.8 channel.
The to-be-tested compound was dissolved in DMSO to prepare a 9 mM stock solution, which was taken and dissolved in extracellular fluid at a desired concentration on the day of testing. The extracellular fluid included the following ingredients (mM): NaCl, 137; KCl, 4; CaCl2, 1.8; MgCl2, 1; HEPES, 10; glucose, 10; and pH 7.4 (NaOH titration). All reagents were purchased from Sigma (St. Louis, MO).
The cells were clamped at −80 mV and depolarized with a sustained 10 ms square wave to 10 mV to obtain a current on Nav1.8. This process was repeated every 5 seconds. A maximum current caused by the square wave was detected. After the current is stable, the to-be-tested compound (dissolved in the extracellular fluid at the desired concentration) was perfused. After the current is stable, the strength of blocking Nav1.8 by the compound was calculated based on the currents before and after perfusion of the compound. pCLAMP 10 (Molecular Devices, Union City, CA) was used. That the current is stable means that the current changes over time within a limited range.

T1 sequence (Q9Y5Y9 whole entry): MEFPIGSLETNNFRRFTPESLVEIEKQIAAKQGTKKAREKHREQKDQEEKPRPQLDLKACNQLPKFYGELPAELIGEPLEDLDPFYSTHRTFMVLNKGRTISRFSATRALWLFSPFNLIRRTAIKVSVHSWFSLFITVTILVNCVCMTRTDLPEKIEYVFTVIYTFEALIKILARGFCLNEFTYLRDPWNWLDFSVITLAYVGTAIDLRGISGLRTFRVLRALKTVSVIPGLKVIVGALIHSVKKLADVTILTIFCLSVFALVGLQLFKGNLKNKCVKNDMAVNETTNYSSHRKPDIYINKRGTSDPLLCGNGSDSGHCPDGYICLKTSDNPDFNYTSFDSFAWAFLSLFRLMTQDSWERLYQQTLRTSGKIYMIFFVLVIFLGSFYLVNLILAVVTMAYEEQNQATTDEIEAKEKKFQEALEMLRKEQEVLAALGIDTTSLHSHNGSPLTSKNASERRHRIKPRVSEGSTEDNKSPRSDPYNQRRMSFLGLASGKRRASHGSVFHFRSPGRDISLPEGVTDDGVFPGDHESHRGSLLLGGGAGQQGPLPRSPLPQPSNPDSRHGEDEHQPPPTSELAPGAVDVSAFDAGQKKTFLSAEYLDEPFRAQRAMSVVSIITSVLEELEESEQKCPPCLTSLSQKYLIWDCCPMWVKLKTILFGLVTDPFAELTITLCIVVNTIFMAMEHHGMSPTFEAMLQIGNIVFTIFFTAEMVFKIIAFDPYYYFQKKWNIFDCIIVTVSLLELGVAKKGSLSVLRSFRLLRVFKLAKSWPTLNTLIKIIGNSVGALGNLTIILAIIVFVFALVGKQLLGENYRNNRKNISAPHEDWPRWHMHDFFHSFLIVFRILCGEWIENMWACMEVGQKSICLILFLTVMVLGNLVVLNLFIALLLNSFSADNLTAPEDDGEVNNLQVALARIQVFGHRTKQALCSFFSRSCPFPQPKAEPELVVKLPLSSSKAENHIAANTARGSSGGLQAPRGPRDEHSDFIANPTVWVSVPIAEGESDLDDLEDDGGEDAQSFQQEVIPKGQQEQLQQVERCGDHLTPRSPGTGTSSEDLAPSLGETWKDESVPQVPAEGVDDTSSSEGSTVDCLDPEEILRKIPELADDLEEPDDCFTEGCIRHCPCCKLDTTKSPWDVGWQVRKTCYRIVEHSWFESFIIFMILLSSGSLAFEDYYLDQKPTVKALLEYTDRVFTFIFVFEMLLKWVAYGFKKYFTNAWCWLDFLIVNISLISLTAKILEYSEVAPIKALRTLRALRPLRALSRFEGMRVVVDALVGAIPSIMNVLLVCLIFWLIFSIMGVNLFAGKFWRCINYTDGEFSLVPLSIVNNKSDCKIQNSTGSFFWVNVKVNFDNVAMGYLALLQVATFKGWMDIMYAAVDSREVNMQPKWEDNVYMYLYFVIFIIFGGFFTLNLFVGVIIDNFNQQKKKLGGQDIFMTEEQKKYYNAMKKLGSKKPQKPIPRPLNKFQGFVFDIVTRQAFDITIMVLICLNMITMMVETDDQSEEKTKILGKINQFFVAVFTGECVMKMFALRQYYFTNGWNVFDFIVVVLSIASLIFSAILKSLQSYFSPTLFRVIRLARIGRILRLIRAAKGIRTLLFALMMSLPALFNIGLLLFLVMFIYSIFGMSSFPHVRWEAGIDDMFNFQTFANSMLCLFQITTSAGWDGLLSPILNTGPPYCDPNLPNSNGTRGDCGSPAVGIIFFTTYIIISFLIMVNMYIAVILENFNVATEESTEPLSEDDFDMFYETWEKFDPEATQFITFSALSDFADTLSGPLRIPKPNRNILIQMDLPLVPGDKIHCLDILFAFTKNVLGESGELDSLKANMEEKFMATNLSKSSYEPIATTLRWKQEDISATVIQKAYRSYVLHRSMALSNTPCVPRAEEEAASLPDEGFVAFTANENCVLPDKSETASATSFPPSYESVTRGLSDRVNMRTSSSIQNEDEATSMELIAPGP

Inhibitory activity (inhibition/% at 100 nM concentration)	Compound
A (A ≥ 50)	rel-(2R,3S,4S,5R)-3-(3,4-difluoro-2-methoxyphenyl)-4,5-dimethyl-N-(4-oxo-3H-quinazolin-6-yl)-5-(trifluoromethyl)tetrahydrofuran-2-carboxamide [Example 4]

Same assay, conditions: HEK293, 100 nM, human Nav1.8, manual patch clamp, read-out: Inhibitory activity (inhibition/% at 100 nM concentration)

inhibition at 0.1 µM [%]	Compound
≥ 50	COc1c([C@H]2[C@H](C(=O)Nc3ccc4c(c3)C(=O)NC4)O[C@@](C)(C(F)(F)F)[C@H]2C)ccc(F)c1F (relative stereo) [Example 1, rel-(2R,3S,4S,5R)-3-(3,4-difluoro-2-methoxyphenyl)-4,5-dimethyl-N-(3-oxoisoindolin-5-yl)-5-(trifluoromethyl)tetrahydrofuran-2-carboxamide]
≥ 50	COc1c(C2[C@H](C(=O)Nc3ccnc(S(=O)(=O)NCC(F)(F)F)c3)O[C@@](C)(C(F)(F)F)[C@H]2C)ccc(F)c1F (relative stereo) [Example 84, rel-(2R,3S,4S,5R)-3-(3,4-difluoro-2-methoxyphenyl)-4,5-dimethyl-N-(2-(N-(2,2,2-trifluoroethyl)sulfamoyl)pyridin-4-yl)-5-trifluoromethyl tetrahydrofuran-2-carboxamide]
≥ 50	CNS(=O)(=O)c1cc(NC(=O)[C@@H]2O[C@]3(C(F)(F)F)CC[C@]3(C)[C@H]2c2ccc(F)c(F)c2OC)ccn1 (relative stereo) [Example 88, rel-(1R,3R,4S,5R)-4-(3,4-difluoro-2-methoxyphenyl)-5-methyl-N-(2-(N-methylsulfamoyl)pyridin-4-yl)-1-(trifluoromethyl)-2-oxabicyclo[3.2.0]heptane-3-carboxamide]
≥ 50	COc1c([C@H]2[C@H](C(=O)Nc3ccc(F)c(S(=O)(=O)Nc4cscn4)c3)O[C@]3(C(F)(F)F)CC[C@]23C)ccc(F)c1F (relative stereo) [Example 92, rel-(1R,3R,4S,5R)-4-(3,4-difluoro-2-methoxyphenyl)-N-(4-fluoro-3-(N-(thiazol-4-yl)aminosulfonyl)phenyl)-5-methyl-1-trifluoromethyl-2-oxabicyclo[3.2.0]heptane-3-carboxamide]
≥ 50	COc1c(C2C(C(=O)Nc3ccnc(OCC(O)CO)c3)OC3(C(F)(F)F)CCC23C)ccc(F)c1F [Example 95, rel-(1R,3R,4S,5R)-4-(3,4-difluoro-2-methoxyphenyl)-N-(2-(S)-2,3-dihydroxypropoxypyridin-4-yl)-5-methyl-1-trifluoromethyl-2-oxabicyclo[3.2.0]heptane-3-carboxamide]
≥ 50	CCNS(=O)(=O)c1cc(NC(=O)[C@@H]2O[C@@](C)(C(F)(F)F)[C@@H](C)[C@H]2c2ccc(F)c(F)c2OC)ccn1 (relative stereo) [Example 83, rel-(2R,3S,4S,5R)-3-(3,4-difluoro-2-methoxyphenyl)-N-(2-(N-ethylsulfamoyl)pyridin-4-yl)-4,5-dimethyl-5-(trifluoromethyl)tetrahydrofuran-2-carboxamide]
≥ 50	COc1c([C@H]2[C@H](C(=O)Nc3ccnc(N4CCN(C)CC4=O)c3)O[C@]3(C(F)(F)F)CC[C@]23C)ccc(F)c1F (relative stereo) [Example 100, rel-(1R,3R,4S,5R)-4-(3,4-difluoro-2-methoxyphenyl)-5-methyl-N-(2-(4-methyl-2-oxopiperazin-1-yl)pyridin-4-yl)-1-(trifluoromethyl)-2-oxabicyclo[3.2.0]heptane-3-carboxamide]
≥ 50	COc1c([C@H]2[C@H](C(=O)Nc3cc[n+](C)c(C(N)=O)c3)O[C@@](C)(C(F)(F)F)[C@H]2C)ccc(F)c1F (relative stereo) [Example 16, rel-2-carbamoyl-4-((2R,3S,4S,5R)-3-(3,4-difluoro-2-methoxyphenyl)-4,5-dimethyl-5-(trifluoromethyl)tetrahydrofuran-2-carboxamido)-1-methylpyridin-1-onium iodide]
≥ 50	COc1c([C@H]2[C@H](C(=O)Nc3ccc(=O)[nH]n3)O[C@@](C)(C(F)(F)F)[C@H]2C)ccc(F)c1F (relative stereo) [Example 27, rel-(2R,3S,4S,5R)-3-(3,4-difluoro-2-methoxyphenyl)-4,5-dimethyl-N-(6-oxo-1H-1,2-dioxine-3-yl)-5-(trifluoromethyl)tetrahydrofuran-2-carboxamide]
≥ 50	COc1c([C@H]2C(C(=O)Nc3ccc4c(c3)S(=O)(=O)NC4=O)O[C@@](C)(C(F)(F)F)[C@H]2C)ccc(F)c1F (relative stereo) [Example 79, rel-(2R,3S,4S,5)-3-(3,4-difluoro-2-methoxyphenyl)-4,5-dimethyl-5-(trifluoromethyl)-N-(1,1,3-trioxo-2,3-dihydro-1λ6-benzo[d][1,2]thiazol-6-yl)tetrahydrofuran-2-carboxamide]
≥ 50	COc1c([C@H]2[C@H](C(=O)Nc3ccc4o[nH]c(=O)c4c3)O[C@@](C)(C(F)(F)F)[C@H]2C)ccc(F)c1F (relative stereo) [Example 5, rel-(2R,3S,4S,5R)-3-(3,4-difluoro-2-methoxyphenyl)-4,5-dimethyl-N-(3-oxo-2H-benzo[d]isoxazol-5-yl)-5-(trifluoromethyl)tetrahydrofuran-2-carboxamide]
≥ 50	COc1c([C@H]2[C@H](C(=O)Nc3ccc(C(N)=O)nc3)O[C@]3(C(F)(F)F)CC[C@]23C)ccc(F)c1F [Example 97, 5-((1S,3R,4S,5S)-4-(3,4-difluoro-2-methoxyphenyl)-5-methyl-1-(trifluoromethyl)-2-oxabicyclo[3.2.0]heptane-3-formylamino)pyridinecarboxamide]

The remaining lines, values behind:

Compound	inhibition at 0.1 µM [%]
COc1c([C@H]2[C@H](C(=O)Nc3ccc4c(c3)C(=O)NC4=O)O[C@@](C)(C(F)(F)F)[C@H]2C)ccc(F)c1F (relative stereo) [Example 10, rel-(2R,3S,4S,5R)-3-(3,4-difluoro-2-methoxyphenyl)-N-(1,3-dioxo-2,3-dihydro-1H-isoindol-5-yl)-4,5-dimethyl-5-(trifluoromethyl)tetrahydrofuran-2-carboxamide]	≥ 50
COc1c([C@H]2[C@H](C(=O)Nc3ccc(C#N)c(C(N)=O)c3)O[C@@](C)(C(F)(F)F)[C@H]2C)ccc(F)c1F (relative stereo) [Example 25, rel-(2R,3S,4S,5R)—N-(3-carbamoyl-4-cyanophenyl)-3-(3,4-difluoro-2-methoxyphenyl)-4,5-dimethyl-5-(trifluoromethyl)tetrahydrofuran-2-carboxamide]	≥ 50
COc1c([C@H]2[C@H](C(=O)Nc3ccnc(S(C)(=O)=O)c3)O[C@]3(C(F)(F)F)CC[C@]23C)ccc(F)c1F (relative stereo) [Example 101, rel-(1R,3R,4S,5R)-4-(3,4-difluoro-2-methoxyphenyl)-5-methyl-N-(2-methylsulfonyl)pyridin-4-yl)-1-trifluoromethyl-2-oxabicyclo[3.2.0]heptane-3-carboxamide]	≥ 50
COc1c([C@H]2[C@H](C(=O)Nc3ccnc(C(O)CF)c3)O[C@]3(C(F)(F)F)CC[C@]23C)ccc(F)c1F (relative stereo) [Example 89, rel-(1R,3R,4S,5R)-4-(3,4-difluoro-2-methoxyphenyl)-N-(2-(2-fluoro-1-hydroxyethyl)pyridin-4-yl)-5-methyl-1-(trifluoromethyl)-2-oxabicyclo[3.2.0]heptane-3-carboxamide]	≥ 50
COc1c([C@H]2[C@H](C(=O)Nc3ccc(C(O)CO)nc3)O[C@]3(C(F)(F)F)CC[C@]23C)ccc(F)c1F (relative stereo) [Example 98, rel-(1R,3R,4S,5R)-4-(3,4-difluoro-2-methoxyphenyl)-N-(6-(1,2-dihydroxyethyl)pyridin-3-yl)-5-methyl-1-trifluoromethyl-2-oxabicyclo[3.2.0]heptane-3-carboxamide]	≥ 50
COc1c([C@H]2[C@H](C(=O)Nc3ccc(C(N)=O)c(C(N)=O)c3)O[C@@](C)(C(F)(F)F)[C@H]2C)ccc(F)c1F (relative stereo) [Example 30, rel-(2R,3S,4S,5R)-4-({[3-(3,4-difluoro-2-methoxyphenyl)-4,5-dimethyl-5-(trifluoromethyl)tetrahydrofuran-2-yl]carbonyl}amino)benzene-1,2-dicarboxamide]	≥ 50
COc1c([C@H]2[C@H](C(=O)Nc3ccc4c(=O)[nH][nH]c(=O)c4c3)O[C@@](C)(C(F)(F)F)[C@H]2C)ccc(F)c1F (relative stereo) [Example 12]	≥ 50
COc1c([C@H]2[C@H](C(=O)Nc3ccc4c(c3)S(=O)(=O)NC4)O[C@@](C)(C(F)(F)F)[C@H]2C)ccc(F)c1F (relative stereo) [Example 9, rel-(2R,3S,4S,5R)-3-(3,4-difluoro-2-methoxyphenyl)-N-(1,1-dioxo-2,3-dihydrobenzo[d]isothiazol-6-yl)-4,5-dimethyl-5-(trifluoromethyl)tetrahydrofuran-2-carboxamide]	≥ 50
COc1c([C@H]2C(C(=O)Nc3ccnc(OC[C@H](O)CO)c3)O[C@]3(C(F)(F)F)CC[C@]23C)ccc(F)c1F (relative stereo) [Example 96, rel-(1R,3R,4S,5R)-4-(3,4-difluoro-2-methoxyphenyl)-N-(2-(R)-2,3-dihydroxypropoxypyridin-4-yl)-5-methyl-1-trifluoromethyl-2-oxabicyclo[3.2.0]heptane-3-carboxamide]	≥ 50
